# Laboratory results taken from patent US10000511B2, “Small molecules for the modulation of MCL-1 and methods of modulating cell death, cell division, cell differentiation and methods of treating disorders” (priority 2010, dated 2018).
# Target: T1, MCL-1ΔNΔC (Homo sapiens, UniProt Q07820)
# Assay: Competitive fluorescence polarization binding screen, FITC-MCL-1 SAHB/MCL-1ΔNΔC
# Parameters: the C-terminal alpha-helix was deleted from each of these constructs to facilitate protein expression and purification; an additional N-terminal deletion of MCL-1 was performed; GST (N, cleaved yes); made in house
# Conditions: FITC-MCL-1 SAHB/MCL-1ΔNΔC interaction
# T1 sequence (Q07820 172-320 limits assumed, stated change not applied): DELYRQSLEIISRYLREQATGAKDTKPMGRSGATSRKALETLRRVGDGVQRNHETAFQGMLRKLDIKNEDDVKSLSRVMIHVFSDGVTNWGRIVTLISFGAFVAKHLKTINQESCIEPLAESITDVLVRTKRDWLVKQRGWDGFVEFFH
row,Compound,MCL-1% Bound [%]
1,CCN(CC)c1cc(C)c2cc(NC(=O)/C=C/c3ccco3)ccc2n1,11.73
2,Cc1ccc(/C=C2\C(=O)Nc3ccc(Br)cc32)o1 [drawing 54],18.74
3,Cc1ccc2c(c1C)NC(C(=O)O)C1CC=CC21 (stereo not shown),14.5

# Test system: MCL-1ΔNΔC
# Assay: as above
# Conditions: selectivity for MCL-1ΔNΔC over BCL-XLΔC (BCL-XL % Bound minus MCL-1 % Bound)
row,Compound,Spec Values
1,CCSC1=C(C#N)C(=O)NC(c2ccc(N(C)C)cc2)S1 (stereo not shown),49.2!
2,O=C(CCN1C(=O)/C(=C\C=C\c2ccco2)SC1=S)Nc1ccc(C(=O)O)c(O)c1,54.54
3,Oc1cccnc1NC(c1ccc(F)cc1)c1ccc2cccnc2c1O (stereo not shown),71.24
4,O=C(/C=C/c1ccco1)NC(=S)Nc1ccccc1C(F)(F)F,52.25
5,COc1cc(C(c2nnnn2C2CCCCC2)N2CCc3ccccc3C2)ccc1O (stereo not shown),48.33
6,Cc1ccc(C)n1-c1cc(Cl)ccc1C(=O)O,79.84
7,Cc1ccc(/C=C2\C(=O)Nc3ccc(Br)cc32)o1 [drawing 54],58.85
8,Cc1ccc(/C=C2\C(=O)Nc3ccc(Br)cc32)o1 [drawing 279],58.85
9,CN1CCN(C(c2ccccn2)c2c(-c3ccccc3)n(O)c3ccccc23)CC1 (stereo not shown),49.28
10,Cc1cc(NC(=O)/C=C/c2ccco2)n(-c2nc3ccccc3n2Cc2cccc(Oc3ccccc3)c2)n1,48.1
11,CC1CCN(C2=NN3C(=N)/C(=C\c4ccc(SCc5ccco5)o4)C(=O)N=C3S2)CC1,70.38
12,Cc1c(Cl)cccc1N1C(=O)CC(N2CCCc3ccccc32)C1=O (stereo not shown),48.92
13,COc1ccc(-c2nc3scc(CCNC(=O)/C=C/c4ccco4)n3n2)cc1,46.24
14,O=C(/C=C/c1ccc(Br)o1)OCC(=O)c1c[nH]c2ccccc12,52.14
15,O=c1c(O)c(-c2ccc(O)c(O)c2)oc2cc(O)cc(O)c12,88.65
16,C/C(=N\OCc1ccc(C(=O)N2CCCCC2)o1)c1cccc(C(F)(F)F)c1,55.34

# Target: T1, MCL-1ΔNΔC
# Assay: not given
# Conditions: pre-incubation, dilution, re-concentration, FITC-BID BH3 FP
row,Compound,mode of binding to MCL-1ΔNΔC (reversible/non-covalent vs covalent)
1,Cc1cc2c(C(C)C)c(O)c(O)c(C=O)c2c(O)c1-c1c(C)cc2c(C(C)C)c(O)c(O)c(C=O)c2c1O [Gossypol],bound reversibly

# Same assay, conditions: pre-incubation, dilution, re-concentration, FITC-BID BH3 FP; listed as 1570G15
row,Compound,mode of binding to MCL-1ΔNΔC (reversible/non-covalent vs covalent)
1,Cc1cc2c(C(C)C)c(O)c(O)c(C=O)c2c(O)c1-c1c(C)cc2c(C(C)C)c(O)c(O)c(C=O)c2c1O [Gossypol],engages MCL-1 through non-covalent interactions

# Target: BCL-XLΔC (Homo sapiens, UniProt Q07817)
# Sequence (Q07817 1-212 limits assumed, stated change not applied): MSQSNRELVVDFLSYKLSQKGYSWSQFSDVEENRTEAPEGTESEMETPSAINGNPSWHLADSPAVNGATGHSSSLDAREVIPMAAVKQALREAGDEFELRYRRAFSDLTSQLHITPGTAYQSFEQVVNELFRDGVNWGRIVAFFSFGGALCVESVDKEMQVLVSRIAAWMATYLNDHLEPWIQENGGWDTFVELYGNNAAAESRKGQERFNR
# Assay: Competitive fluorescence polarization binding screen, FITC-BAD BH3/BCL-XLΔC
# Conditions: FITC-BAD BH3/BCL-XLΔC interaction
row,Compound,BCL-XL % Bound [%]
1,COc1ccc(/C=c2\s/c(=C\C(=O)c3ccco3)[nH]c2=O)cc1O,263.7
2,CCSC1=C(C#N)C(=O)NC(c2ccc(O)cc2)S1 (stereo not shown),84.82
3,CCN(CC)c1cc(C)c2cc(NC(=O)/C=C/c3ccco3)ccc2n1,79.88
4,O=C(/C=C/c1ccc(Br)o1)OCC(=O)c1c[nH]c2ccccc12,105.6
